Source: patent US20230346661A1, “Anhydrous Azelaic Acid Topical Formulations” (Baek Clinical Inc., priority 2020, published 2023)
Blank lines part the entries; values can stand above or below the compound they belong to.

Legend:
[1] = Solubility of optional additional components in non-aqueous solvents; format: physicochemical
Description: Additional ingredients were chosen for their compatibility with (e.g., miscibility in) 1,3 propanediol, 1,2 propanediol, and 1,3 butanediol.

[2] = Maximum concentration of azelaic acid solubilized with heat in a given solvent without precipitation upon cooling; format: physicochemical; details: in dimethyl isosorbide, relative to the approximately 10 to 12% of the diols
Description: In order to determine a desirable ratio of azelaic acid to urea for certain compositions of this disclosure, the maximum concentration for azelaic acid that can be solubilized is first determined, with heat exposure, in a given solvent without precipitation upon cooling.

[3] = Ability of polyol solvents to solubilize azelaic acid; format: physicochemical
Description: A series of experiments were performed to assess and optimize the components of the subject formulations.

[4] = cited from earlier work
melasma = details: cited from earlier work
erythema (skin redness) = details: concentrations of 0.2%; cited from earlier work
[5] = system: transepidermal water loss; details: in vivo; cited from earlier work

Compound: COc1cc(CC(C(C)=O)C(C)=O)ccc1O [Acetyl zingerone]
solubility ([1]; at 0.5-1% in 1,3 propanediol, 1,2 propanediol and 1,3 butanediol): readily soluble

Compound: O=C(O)CCCCCCCC(=O)O [azelaic acid]
maximum concentration for azelaic acid that can be solubilized [2]: significantly lower | ability to solubilize azelaic acid ([3]; solvent 1,2-hexanediol used alone): moderate | ability to solubilize azelaic acid ([3]; solvent 1,2-propanediol (propylene glycol)): moderate | ability to solubilize azelaic acid ([3]; solvent 1,3-butanediol (butylene glycol)): moderate | ability to solubilize azelaic acid ([3]; solvent 1,3-propanediol): moderate | ability to solubilize azelaic acid ([3]; solvent 1,5-pentanediol (pentylene glycol)): moderate | ability to solubilize azelaic acid ([3]; solvent dimethyl isosorbide): very limited | ability to solubilize azelaic acid ([3]; solvents glycerin and diglycerin): moderate and low | solubility in cosmetic oils ([4]; cosmetic oils): little or no solubility | stability of azelaic acid in alcohol ([4]; ethyl alcohol, normal temperatures): unstable | maximum azelaic acid in a water and azelaic acid solution ([4]; water): about 0.24 % by weight (w/w) | treatment differences in overall rating, reduction in lesion size and pigmentary intensity (melasma; 20% azelaic acid compared to 4% hydroquinone): no significant treatment differences | allergic sensitization or exogenous ochronosis (melasma; 20% azelaic acid): no allergic sensitization or exogenous ochronosis observed | good or excellent results in lightening melasma (melasma; 20% azelaic acid): 65%

Compound: CC(C)(CO)[C@@H](O)C(=O)NCCCO [Panthenol]
concentration at which inhibition of transepidermal water loss is apparent [5]: ≥ 1%

The next lines start with results.

solubility ([1]; in 1,3-propanediol): shows solubility
Compound: CC1(C)[C@@H](O[C@H]2O[C@H](C(=O)O)[C@@H](O)[C@H](O)[C@H]2O[C@@H]2O[C@H](C(=O)O)[C@@H](O)[C@H](O)[C@H]2O)CC[C@]2(C)[C@H]3C(=O)C=C4[C@@H]5C[C@@](C)(C(=O)O)CC[C@]5(C)CC[C@@]4(C)[C@]3(C)CC[C@@H]12 [glycyrrhizic acid]

solubility ([1]; at a concentration of 0.2% in 1,3 propanediol, 1,2 propanediol and 1,3 butanediol): soluble
Compound: madecassoside
ability to reduce erythema (skin redness) (erythema (skin redness)): desirable ability to reduce erythema
